# Data as given in patent publication US20260166128A1, “HUMAN AMYLIN ANALOG, AND DERIVATIVE THEREOF AND USE THEREOF” (priority 2022, published 2026).
# Numbered stars: 1 amine (or outer) side, 2 acyl side, 3 side chain; on linkers, the order of the positions; unused ones are H or OH. Bridge positions count the residues as written; N and C are the ends. Square brackets hold non-standard residues; d marks the D form. Side chains are listed from the residue outwards. Peptide text beside a SMILES is read from it. * marks the point of attachment. C20 diacid = O=C(O)CCCCCCCCCCCCCCCCCCC(=O)*; C18 diacid = O=C(O)CCCCCCCCCCCCCCCCC(=O)*; γGlu = O=C(O)[C@H](CCC(=O)[*:2])N[*:1]; βAsp = O=C(O)[C@H](CC(=O)[*:2])N[*:1]; cisHyp = O=C(O)[C@@H]1C[C@H](O)CN1; Hyp = O=C(O)[C@@H]1C[C@@H](O)CN1; AEEA = NCCOCCOCC(=O)O
# Target: T1, human amylin receptor (Homo sapiens, UniProt O60896+P30988)
# T1 construct: host or cells: CHO-K1/Ga15/AMY3 cells, further stably transfected with a CRE-luciferase plasmid
# T1 sequence (P30988 25-474): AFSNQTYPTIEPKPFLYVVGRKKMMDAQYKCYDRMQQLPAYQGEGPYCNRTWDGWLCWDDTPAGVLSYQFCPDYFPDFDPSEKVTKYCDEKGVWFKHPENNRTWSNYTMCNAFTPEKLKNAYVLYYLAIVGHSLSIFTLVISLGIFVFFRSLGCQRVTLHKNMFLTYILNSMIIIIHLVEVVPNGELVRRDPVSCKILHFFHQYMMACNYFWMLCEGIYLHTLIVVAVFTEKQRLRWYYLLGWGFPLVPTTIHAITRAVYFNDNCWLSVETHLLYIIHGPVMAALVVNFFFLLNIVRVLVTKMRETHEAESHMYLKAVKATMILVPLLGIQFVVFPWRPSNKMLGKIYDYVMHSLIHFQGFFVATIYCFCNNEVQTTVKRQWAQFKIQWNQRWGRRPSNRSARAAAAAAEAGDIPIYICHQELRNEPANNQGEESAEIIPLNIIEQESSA
# T1 sequence (O60896 24-148 partner): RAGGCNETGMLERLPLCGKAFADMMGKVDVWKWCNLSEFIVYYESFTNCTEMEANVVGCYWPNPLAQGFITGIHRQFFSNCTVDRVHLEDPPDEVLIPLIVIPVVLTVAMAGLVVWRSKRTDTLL
# Assay: Luciferase assay of amylin derivatives in amylin receptor/CRE-luc CHO cell line
# Assay type: cell-based
# Conditions: CHO-K1/Ga15/AMY3 CRE-luc cells, 24 hours incubation, F12 medium containing 10% FBS; read-out: EC50
# Description: The experiment was intended to detect the activity or efficacy of the amylin derivatives on a human amylin receptor in vitro by luciferase assay.
# 50 μL of growth medium (F12 medium containing 10% FBS) was added into each well of a white 96-well plate, and the stably transfected amylin/CRE-lue CHO cells were inoculated into the white 96-well plate at a density of about 20,000 cells/well for activity determination.
row,EC50 [nM],Structure (SMILES)
1,0.586,CC[C@H](C)[C@H](NC(=O)[C@@H]1CCCN1C(=O)[C@H](CCCCNC(=O)CC[C@H](NC(=O)CCCCCCCCCCCCCCCCCCC(=O)O)C(=O)O)NC(=O)[C@H](CC(C)C)NC(=O)[C@H](CC(N)=O)NC(=O)[C@H](CC(N)=O)NC(=O)[C@H](CO)NC(=O)[C@H](CO)NC(=O)[C@H](Cc1c[nH]cn1)NC(=O)[C@H](CCCNC(=N)N)NC(=O)[C@H](CC(C)C)NC(=O)[C@H](Cc1ccccc1)NC(=O)[C@H](CC(=O)O)NC(=O)[C@H](C)NC(=O)[C@H](CC(C)C)NC(=O)[C@H](CCCNC(=N)N)NC(=O)[C@H](CCC(N)=O)NC(=O)[C@@H](NC(=O)[C@H](C)NC(=O)[C@@H]1CSSC[C@H](NC(=O)[C@@H](N)CCCNC(=N)N)C(=O)N[C@@H](CC(N)=O)C(=O)N[C@@H]([C@@H](C)O)C(=O)N[C@@H](C)C(=O)N[C@@H]([C@@H](C)O)C(=O)N1)[C@@H](C)O)C(=O)N[C@@H](CC(C)C)C(=O)N1CCC[C@H]1C(=O)N1CCC[C@H]1C(=O)N[C@H](C(=O)N[C@@H](CC(N)=O)C(=O)N[C@H](C(=O)NCC(=O)N[C@@H](CO)C(=O)N[C@@H](CC(N)=O)C(=O)N[C@H](C(=O)N1C[C@@H](O)C[C@H]1C(N)=O)[C@@H](C)O)C(C)C)[C@@H](C)O [PD056] (H-RCNTATCATQRLADFLRHSSNNLK([γGlu-C20 diacid])PILPPTNVGSNT[cisHyp]-NH2; disulfide 2-7)
2,0.005,CC[C@H](C)[C@H](NC(=O)[C@@H]1CCCN1C(=O)CNC(=O)[C@H](CCCCNC(=O)COCCOCCNC(=O)COCCOCCNC(=O)CC[C@H](NC(=O)CCCCCCCCCCCCCCCCC(=O)O)C(=O)O)NC(=O)[C@H](CC(N)=O)NC(=O)[C@H](CC(N)=O)NC(=O)[C@H](CO)NC(=O)[C@H](CO)NC(=O)[C@H](Cc1c[nH]cn1)NC(=O)[C@H](CCCNC(=N)N)NC(=O)[C@H](CC(C)C)NC(=O)[C@H](Cc1ccccc1)NC(=O)[C@H](CC(=O)O)NC(=O)[C@H](C)NC(=O)[C@H](CC(C)C)NC(=O)[C@H](CCCNC(=N)N)NC(=O)[C@H](CCC(N)=O)NC(=O)[C@@H](NC(=O)[C@H](C)NC(=O)[C@@H]1CSSC[C@H](NC(=O)[C@@H](N)CCCNC(=N)N)C(=O)N[C@@H](CC(N)=O)C(=O)N[C@@H]([C@@H](C)O)C(=O)N[C@@H](C)C(=O)N[C@@H]([C@@H](C)O)C(=O)N1)[C@@H](C)O)C(=O)N[C@@H](CC(C)C)C(=O)N1CCC[C@H]1C(=O)N1CCC[C@H]1C(=O)N[C@H](C(=O)N[C@@H](CC(N)=O)C(=O)N[C@H](C(=O)NCC(=O)N[C@@H](CO)C(=O)N[C@@H](CC(N)=O)C(=O)N[C@H](C(=O)N1C[C@H](O)C[C@H]1C(N)=O)[C@@H](C)O)C(C)C)[C@@H](C)O [PD085] (H-RCNTATCATQRLADFLRHSSNNK([AEEA-AEEA-γGlu-C18 diacid])GPILPPTNVGSNT[Hyp]-NH2; disulfide 2-7)
3,0.039,CC[C@H](C)[C@H](NC(=O)[C@@H]1CCCN1C(=O)CNC(=O)[C@H](CC(C)C)NC(=O)[C@H](CC(N)=O)NC(=O)[C@H](CC(N)=O)NC(=O)[C@H](CO)NC(=O)[C@H](CO)NC(=O)[C@H](Cc1c[nH]cn1)NC(=O)[C@H](CCCNC(=N)N)NC(=O)[C@H](CC(C)C)NC(=O)[C@H](Cc1ccccc1)NC(=O)[C@H](CC(=O)O)NC(=O)[C@H](C)NC(=O)[C@H](CC(C)C)NC(=O)[C@H](CCCNC(=N)N)NC(=O)[C@H](CCC(N)=O)NC(=O)[C@@H](NC(=O)[C@H](C)NC(=O)[C@@H]1CSSC[C@H](NC(=O)[C@H](CCCCN)NC(=O)CC[C@H](NC(=O)CCCCCCCCCCCCCCCCCCC(=O)O)C(=O)O)C(=O)N[C@@H](CC(N)=O)C(=O)N[C@@H]([C@@H](C)O)C(=O)N[C@@H](C)C(=O)N[C@@H]([C@@H](C)O)C(=O)N1)[C@@H](C)O)C(=O)N[C@@H](CC(C)C)C(=O)N1CCC[C@H]1C(=O)N1CCC[C@H]1C(=O)N[C@H](C(=O)N[C@@H](CC(N)=O)C(=O)N[C@H](C(=O)NCC(=O)N[C@@H](CO)C(=O)N[C@@H](CC(N)=O)C(=O)N[C@H](C(=O)N1C[C@H](O)C[C@H]1C(N)=O)[C@@H](C)O)C(C)C)[C@@H](C)O [PD069] ({C20 diacid-γGlu}-KCNTATCATQRLADFLRHSSNNLGPILPPTNVGSNT[Hyp]-NH2; disulfide 2-7)
4,0.037,CC[C@H](C)[C@H](NC(=O)[C@@H]1CCCN1C(=O)[C@H](CCCCN)NC(=O)[C@H](CC(C)C)NC(=O)[C@H](CC(N)=O)NC(=O)[C@H](CC(N)=O)NC(=O)[C@H](CO)NC(=O)[C@H](CO)NC(=O)[C@H](Cc1c[nH]cn1)NC(=O)[C@H](CCCNC(=N)N)NC(=O)[C@H](CC(C)C)NC(=O)[C@H](Cc1ccccc1)NC(=O)[C@H](CC(=O)O)NC(=O)[C@H](C)NC(=O)[C@H](CC(C)C)NC(=O)[C@H](CCCNC(=N)N)NC(=O)[C@H](CCC(N)=O)NC(=O)[C@@H](NC(=O)[C@H](C)NC(=O)[C@@H]1CSSC[C@H](NC(=O)[C@H](CCCCN)NC(=O)C[C@H](NC(=O)COCCOCCNC(=O)COCCOCCNC(=O)CCCCCCCCCCCCCCCCCCC(=O)O)C(=O)O)C(=O)N[C@@H](CC(N)=O)C(=O)N[C@@H]([C@@H](C)O)C(=O)N[C@@H](C)C(=O)N[C@@H]([C@@H](C)O)C(=O)N1)[C@@H](C)O)C(=O)N[C@@H](CC(C)C)C(=O)N1CCC[C@H]1C(=O)N1CCC[C@H]1C(=O)N[C@H](C(=O)N[C@@H](CC(N)=O)C(=O)N[C@H](C(=O)NCC(=O)N[C@@H](CO)C(=O)N[C@@H](CC(N)=O)C(=O)N[C@H](C(=O)N1C[C@H](O)C[C@H]1C(N)=O)[C@@H](C)O)C(C)C)[C@@H](C)O [PD184] ({C20 diacid-AEEA-AEEA-βAsp}-KCNTATCATQRLADFLRHSSNNLKPILPPTNVGSNT[Hyp]-NH2; disulfide 2-7 (inferred))
5,0.029,CC[C@H](C)[C@H](NC(=O)[C@@H]1CCCN1C(=O)[C@H](CCCCN)NC(=O)[C@H](CC(C)C)NC(=O)[C@H](CC(N)=O)NC(=O)[C@H](CC(N)=O)NC(=O)[C@H](CO)NC(=O)[C@H](CO)NC(=O)[C@H](Cc1c[nH]cn1)NC(=O)[C@H](CCCNC(=N)N)NC(=O)[C@H](CC(C)C)NC(=O)[C@H](Cc1ccccc1)NC(=O)[C@H](CC(=O)O)NC(=O)[C@H](C)NC(=O)[C@H](CC(C)C)NC(=O)[C@H](CCCNC(=N)N)NC(=O)[C@H](CCC(N)=O)NC(=O)[C@@H](NC(=O)[C@H](C)NC(=O)[C@@H]1CSSC[C@H](NC(=O)[C@H](CCCCN)NC(=O)CC[C@H](NC(=O)COCCOCCNC(=O)COCCOCCNC(=O)CCCCCCCCCCCCCCCCCCC(=O)O)C(=O)O)C(=O)N[C@@H](CC(N)=O)C(=O)N[C@@H]([C@@H](C)O)C(=O)N[C@@H](C)C(=O)N[C@@H]([C@@H](C)O)C(=O)N1)[C@@H](C)O)C(=O)N[C@@H](CC(C)C)C(=O)N1CCC[C@H]1C(=O)N1CCC[C@H]1C(=O)N[C@H](C(=O)N[C@@H](CC(N)=O)C(=O)N[C@H](C(=O)NCC(=O)N[C@@H](CO)C(=O)N[C@@H](CC(N)=O)C(=O)N[C@H](C(=O)N1C[C@H](O)C[C@H]1C(N)=O)[C@@H](C)O)C(C)C)[C@@H](C)O [PD176] ({C20 diacid-AEEA-AEEA-γGlu}-KCNTATCATQRLADFLRHSSNNLKPILPPTNVGSNT[Hyp]-NH2; disulfide 2-7)
6,0.11,CC[C@H](C)[C@H](NC(=O)[C@@H]1CCCN1C(=O)[C@H](CCCCNC(=O)CC[C@H](NC(=O)CCCCCCCCCCCCCCCCCCC(=O)O)C(=O)O)NC(=O)[C@H](CC(C)C)NC(=O)[C@H](CC(N)=O)NC(=O)[C@H](CC(N)=O)NC(=O)[C@H](CO)NC(=O)[C@H](CO)NC(=O)[C@H](Cc1c[nH]cn1)NC(=O)[C@H](CCCNC(=N)N)NC(=O)[C@H](CC(C)C)NC(=O)[C@H](Cc1ccccc1)NC(=O)[C@H](CC(=O)O)NC(=O)[C@H](C)NC(=O)[C@H](CC(C)C)NC(=O)[C@H](CCCNC(=N)N)NC(=O)[C@H](CCC(N)=O)NC(=O)[C@@H](NC(=O)[C@H](C)NC(=O)[C@@H]1CSSC[C@H](NC(=O)[C@@H](N)CCC(=O)O)C(=O)N[C@@H](CC(N)=O)C(=O)N[C@@H]([C@@H](C)O)C(=O)N[C@@H](C)C(=O)N[C@@H]([C@@H](C)O)C(=O)N1)[C@@H](C)O)C(=O)N[C@@H](CC(C)C)C(=O)N1CCC[C@H]1C(=O)N1CCC[C@H]1C(=O)N[C@H](C(=O)N[C@@H](CC(N)=O)C(=O)N[C@H](C(=O)NCC(=O)N[C@@H](CO)C(=O)N[C@@H](CC(N)=O)C(=O)N[C@H](C(=O)N1C[C@H](O)C[C@H]1C(N)=O)[C@@H](C)O)C(C)C)[C@@H](C)O [PD080] (H-ECNTATCATQRLADFLRHSSNNLK([γGlu-C20 diacid])PILPPTNVGSNT[Hyp]-NH2; disulfide 2-7)
